“And” between values parts separate entries of the source, which are not always exact repeats. Equal values may be shown once. Read-outs that look alike come from different tables or passages of the source.
How the values were obtained:
[1] = molecular target: C. elegans (N2) complex I (NADH:ubiquinone oxidoreductase) (Caenorhabditis elegans, UniProt P24887+Q93873+Q94360); assay: biochemical; type: biochemical
Outline: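 Activity expressed as percent of solvent control. Complex I rate came from DCIP reduction at 600 nm (initial linear slope, 15 min) with NADH and decylubiquinone as substrates, plus antimycin A and KCN, in pH 7.5 KPi/BSA buffer. Isolated, thrice freeze-thawed mitochondria used at 0.2 mg/mL.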

[2] = molecular target: B. taurus (heart) complex I (Bos taurus, UniProt P03887+P17694+P42026); assay: biochemical; type: biochemical
B. taurus (heart) complex I, sequence (P03887 whole entry): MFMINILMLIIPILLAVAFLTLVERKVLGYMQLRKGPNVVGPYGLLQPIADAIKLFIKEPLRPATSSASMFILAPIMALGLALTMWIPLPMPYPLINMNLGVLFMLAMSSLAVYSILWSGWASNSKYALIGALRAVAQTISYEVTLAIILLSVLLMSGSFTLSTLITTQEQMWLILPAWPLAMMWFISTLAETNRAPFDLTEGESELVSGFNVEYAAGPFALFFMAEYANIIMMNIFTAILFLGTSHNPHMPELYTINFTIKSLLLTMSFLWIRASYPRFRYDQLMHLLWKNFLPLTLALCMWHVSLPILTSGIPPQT
B. taurus (heart) complex I, sequence (P17694 34-463): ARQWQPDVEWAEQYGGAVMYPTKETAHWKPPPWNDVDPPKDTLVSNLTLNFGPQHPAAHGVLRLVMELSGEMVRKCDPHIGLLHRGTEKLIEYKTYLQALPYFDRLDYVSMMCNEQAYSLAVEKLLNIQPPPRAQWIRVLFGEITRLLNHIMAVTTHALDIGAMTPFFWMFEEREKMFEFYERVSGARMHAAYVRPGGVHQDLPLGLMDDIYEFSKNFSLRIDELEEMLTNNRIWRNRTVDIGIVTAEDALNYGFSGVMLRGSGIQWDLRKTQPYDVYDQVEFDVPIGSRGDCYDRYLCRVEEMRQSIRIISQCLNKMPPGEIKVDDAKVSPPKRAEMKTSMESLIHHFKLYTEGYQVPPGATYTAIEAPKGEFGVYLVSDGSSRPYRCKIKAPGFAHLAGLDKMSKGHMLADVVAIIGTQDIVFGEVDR
B. taurus (heart) complex I, sequence (P42026 38-216): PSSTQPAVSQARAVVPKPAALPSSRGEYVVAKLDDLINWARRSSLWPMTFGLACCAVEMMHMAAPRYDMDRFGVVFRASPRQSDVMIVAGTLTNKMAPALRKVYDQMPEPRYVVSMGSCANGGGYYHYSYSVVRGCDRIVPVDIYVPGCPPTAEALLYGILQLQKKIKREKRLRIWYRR
Outline: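 Complex I activity followed as DCIP reduction (600 nm, 30 s reads, 15 min) with 80 μM NADH and 60 μM decylubiquinone in 25 mM KPi pH 7.5 containing 2 μM antimycin A and 2 mM KCN. Freeze-thawed mouse or bovine heart mitochondria at 0.2 mg/mL; initial-rate percent of solvent control, single-point 100 μM or dose-response.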

C. elegans (N2) complex I (NADH:ubiquinone oxidoreductase), sequence (Q94360 17-199): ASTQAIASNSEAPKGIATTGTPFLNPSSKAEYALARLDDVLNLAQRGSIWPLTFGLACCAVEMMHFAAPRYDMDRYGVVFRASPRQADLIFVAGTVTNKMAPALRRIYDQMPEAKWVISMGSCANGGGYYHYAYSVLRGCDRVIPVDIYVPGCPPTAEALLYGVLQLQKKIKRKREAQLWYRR
C. elegans (N2) complex I (NADH:ubiquinone oxidoreductase), sequence (P24887 whole entry): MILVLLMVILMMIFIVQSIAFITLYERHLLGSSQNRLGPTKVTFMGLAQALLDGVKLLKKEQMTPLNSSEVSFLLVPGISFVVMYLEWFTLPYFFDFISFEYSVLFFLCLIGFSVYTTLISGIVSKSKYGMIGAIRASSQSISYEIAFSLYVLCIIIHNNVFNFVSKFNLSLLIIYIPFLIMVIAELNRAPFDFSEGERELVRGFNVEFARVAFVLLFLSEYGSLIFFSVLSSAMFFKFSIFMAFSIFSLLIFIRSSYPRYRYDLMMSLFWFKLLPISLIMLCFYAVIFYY
C. elegans (N2) complex I (NADH:ubiquinone oxidoreductase), sequence (Q93873 31-482): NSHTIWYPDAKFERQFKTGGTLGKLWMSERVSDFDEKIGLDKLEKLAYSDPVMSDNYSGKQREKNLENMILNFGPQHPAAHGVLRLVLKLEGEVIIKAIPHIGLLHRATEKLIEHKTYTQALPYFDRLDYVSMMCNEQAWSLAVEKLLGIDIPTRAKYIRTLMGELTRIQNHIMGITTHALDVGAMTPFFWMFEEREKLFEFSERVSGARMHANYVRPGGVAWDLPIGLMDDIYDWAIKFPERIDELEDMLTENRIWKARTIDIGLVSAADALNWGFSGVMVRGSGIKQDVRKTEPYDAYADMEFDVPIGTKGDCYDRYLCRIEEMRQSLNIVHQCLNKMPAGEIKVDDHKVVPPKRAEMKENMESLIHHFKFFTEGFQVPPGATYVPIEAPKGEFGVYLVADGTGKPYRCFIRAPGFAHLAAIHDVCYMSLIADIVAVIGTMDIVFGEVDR

Cc1nc2ccccc2n1Cc1ccc(Cl)cc1 [STK697993]
remaining activity at 0.0001 µM ([1]; C. elegans mitochondria, 0.0001 µM, Mean, read-out: in vitro complex I activity relative to solvent control): 93.5% | remaining activity at 0.0001 µM ([1]; C. elegans mitochondria, 0.0001 µM, single replicate, read-out: in vitro complex I activity relative to solvent control): 90.1% | remaining activity at 0.0005 µM ([1]; C. elegans mitochondria, 0.0005 µM, Mean, read-out: in vitro complex I activity relative to solvent control): 93.4% | remaining activity at 0.0005 µM ([1]; C. elegans mitochondria, 0.0005 µM, single replicate, read-out: in vitro complex I activity relative to solvent control): 89.1% | remaining activity at 0.001 µM ([1]; C. elegans mitochondria, 0.001 µM, Mean, read-out: in vitro complex I activity relative to solvent control): 92.2% | remaining activity at 0.0025 µM ([1]; C. elegans mitochondria, 0.0025 µM, Mean, read-out: in vitro complex I activity relative to solvent control): 89.9% | remaining activity at 0.005 µM ([1]; C. elegans mitochondria, 0.005 µM, Mean, read-out: in vitro complex I activity relative to solvent control): 93.8% | remaining activity at 0.013 µM ([1]; C. elegans mitochondria, 0.013 µM, Mean, read-out: in vitro complex I activity relative to solvent control): 89.4% | remaining activity at 0.025 µM ([1]; C. elegans mitochondria, 0.025 µM, Mean, read-out: in vitro complex I activity relative to solvent control): 79.6% | remaining activity at 0.025 µM ([1]; C. elegans mitochondria, 0.025 µM, single replicate, read-out: in vitro complex I activity relative to solvent control): 81.1% | remaining activity at 0.063 µM ([1]; C. elegans mitochondria, 0.063 µM, Mean, read-out: in vitro complex I activity relative to solvent control): 59.3% | remaining activity at 0.063 µM ([1]; C. elegans mitochondria, 0.063 µM, single replicate, read-out: in vitro complex I activity relative to solvent control): 58.9% | remaining activity at 0.125 µM ([1]; C. elegans mitochondria, 0.125 µM, Mean, read-out: in vitro complex I activity relative to solvent control): 46.1% | remaining activity at 0.125 µM ([1]; C. elegans mitochondria, 0.125 µM, single replicate, read-out: in vitro complex I activity relative to solvent control): 47% | remaining activity at 0.313 µM ([1]; C. elegans mitochondria, 0.313 µM, Mean, read-out: in vitro complex I activity relative to solvent control): 24.1% | remaining activity at 0.313 µM ([1]; C. elegans mitochondria, 0.313 µM, single replicate, read-out: in vitro complex I activity relative to solvent control): 23.6% | remaining activity at 0.625 µM ([1]; C. elegans mitochondria, 0.625 µM, Mean, read-out: in vitro complex I activity relative to solvent control): 15.5% | remaining activity at 0.625 µM ([1]; C. elegans mitochondria, 0.625 µM, single replicate, read-out: in vitro complex I activity relative to solvent control): 16.8% | remaining activity at 1.5 µM ([1]; C. elegans mitochondria, 1.5 µM, Mean, read-out: in vitro complex I activity relative to solvent control): 6.88% | remaining activity at 3 µM ([1]; C. elegans mitochondria, 3 µM, Mean, read-out: in vitro complex I activity relative to solvent control): 4.54% | remaining activity at 15 µM ([1]; C. elegans mitochondria, 15 µM, Mean, read-out: in vitro complex I activity relative to solvent control): 3.15% | remaining activity at 37.5 µM ([1]; C. elegans mitochondria, 37.5 µM, Mean, read-out: in vitro complex I activity relative to solvent control): 1.66% | remaining activity at 75 µM ([1]; C. elegans mitochondria, 75 µM, Mean, read-out: in vitro complex I activity relative to solvent control): 1.29% | remaining activity at 0.0001 µM ([1]; dose 0.0001 µM, wild-type C. elegans, mean of replicates, read-out: in vitro complex I activity relative to solvent control, Mean): 93.5% | in vitro complex I activity relative to solvent control, individual replicate ([1]; dose 0.0001 µM, wild-type C. elegans, single replicate): 99.582% and 83.147% and 101.146% | remaining activity at 0.0001 µM ([1]; dose 0.0001 µM, wild-type C. elegans, single replicate, read-out: in vitro complex I activity relative to solvent control, individual replicate): 90.1% | remaining activity at 0.0005 µM ([1]; dose 0.0005 µM, wild-type C. elegans, mean of replicates, read-out: in vitro complex I activity relative to solvent control, Mean): 93.4% | in vitro complex I activity relative to solvent control, individual replicate ([1]; dose 0.0005 µM, wild-type C. elegans, single replicate): 96.982% and 84.926% and 102.628% | remaining activity at 0.0005 µM ([1]; dose 0.0005 µM, wild-type C. elegans, single replicate, read-out: in vitro complex I activity relative to solvent control, individual replicate): 89.1% | remaining activity at 0.001 µM ([1]; dose 0.001 µM, wild-type C. elegans, mean of replicates, read-out: in vitro complex I activity relative to solvent control, Mean): 92.2% | in vitro complex I activity relative to solvent control, individual replicate ([1]; dose 0.001 µM, wild-type C. elegans, single replicate): 93.635% and 85.360% and 84.052% and 105.930% | remaining activity at 0.0025 µM ([1]; dose 0.0025 µM, wild-type C. elegans, mean of replicates, read-out: in vitro complex I activity relative to solvent control, Mean): 89.9% | in vitro complex I activity relative to solvent control, individual replicate ([1]; dose 0.0025 µM, wild-type C. elegans, single replicate): 94.908% and 85.958% and 78.987% and 99.629% | remaining activity at 0.005 µM ([1]; dose 0.005 µM, wild-type C. elegans, mean of replicates, read-out: in vitro complex I activity relative to solvent control, Mean): 93.8% | in vitro complex I activity relative to solvent control, individual replicate ([1]; dose 0.005 µM, wild-type C. elegans, single replicate): 110.821% and 90.887% and 82.153% and 91.307% | remaining activity at 0.013 µM ([1]; dose 0.013 µM, wild-type C. elegans, mean of replicates, read-out: in vitro complex I activity relative to solvent control, Mean): 89.4% | in vitro complex I activity relative to solvent control, individual replicate ([1]; dose 0.013 µM, wild-type C. elegans, single replicate): 104.424% and 80.938% and 77.600% and 94.576% | remaining activity at 0.025 µM ([1]; dose 0.025 µM, wild-type C. elegans, mean of replicates, read-out: in vitro complex I activity relative to solvent control, Mean): 79.6% | in vitro complex I activity relative to solvent control, individual replicate ([1]; dose 0.025 µM, wild-type C. elegans, single replicate): 79.265% and 72.113% and 85.782% | remaining activity at 0.025 µM ([1]; dose 0.025 µM, wild-type C. elegans, single replicate, read-out: in vitro complex I activity relative to solvent control, individual replicate): 81.1% | remaining activity at 0.063 µM ([1]; dose 0.063 µM, wild-type C. elegans, mean of replicates, read-out: in vitro complex I activity relative to solvent control, Mean): 59.3% | in vitro complex I activity relative to solvent control, individual replicate ([1]; dose 0.063 µM, wild-type C. elegans, single replicate): 58.500% and 52.939% and 67.015% | remaining activity at 0.063 µM ([1]; dose 0.063 µM, wild-type C. elegans, single replicate, read-out: in vitro complex I activity relative to solvent control, individual replicate): 58.9% | remaining activity at 0.125 µM ([1]; dose 0.125 µM, wild-type C. elegans, mean of replicates, read-out: in vitro complex I activity relative to solvent control, Mean): 46.1% | in vitro complex I activity relative to solvent control, individual replicate ([1]; dose 0.125 µM, wild-type C. elegans, single replicate): 44.996% and 42.086% and 50.202% | remaining activity at 0.125 µM ([1]; dose 0.125 µM, wild-type C. elegans, single replicate, read-out: in vitro complex I activity relative to solvent control, individual replicate): 47% | remaining activity at 0.313 µM ([1]; dose 0.313 µM, wild-type C. elegans, mean of replicates, read-out: in vitro complex I activity relative to solvent control, Mean): 24.1% | in vitro complex I activity relative to solvent control, individual replicate ([1]; dose 0.313 µM, wild-type C. elegans, single replicate): 25.635% and 20.651% and 26.550% | remaining activity at 0.313 µM ([1]; dose 0.313 µM, wild-type C. elegans, single replicate, read-out: in vitro complex I activity relative to solvent control, individual replicate): 23.6% | remaining activity at 0.625 µM ([1]; dose 0.625 µM, wild-type C. elegans, mean of replicates, read-out: in vitro complex I activity relative to solvent control, Mean): 15.5% | in vitro complex I activity relative to solvent control, individual replicate ([1]; dose 0.625 µM, wild-type C. elegans, single replicate): 15.276% and 17.385% and 12.484% | remaining activity at 0.625 µM ([1]; dose 0.625 µM, wild-type C. elegans, single replicate, read-out: in vitro complex I activity relative to solvent control, individual replicate): 16.8% | remaining activity at 1.5 µM ([1]; dose 1.5 µM, wild-type C. elegans, mean of replicates, read-out: in vitro complex I activity relative to solvent control, Mean): 6.88% | in vitro complex I activity relative to solvent control, individual replicate ([1]; dose 1.5 µM, wild-type C. elegans, single replicate): 4.958% and 1.160% and 6.055% and 15.327% | remaining activity at 3 µM ([1]; dose 3 µM, wild-type C. elegans, mean of replicates, read-out: in vitro complex I activity relative to solvent control, Mean): 4.54% | in vitro complex I activity relative to solvent control, individual replicate ([1]; dose 3 µM, wild-type C. elegans, single replicate): 0.589% and 7.541% and 4.494% and 5.523% | remaining activity at 15 µM ([1]; dose 15 µM, wild-type C. elegans, mean of replicates, read-out: in vitro complex I activity relative to solvent control, Mean): 3.15% | in vitro complex I activity relative to solvent control, individual replicate ([1]; dose 15 µM, wild-type C. elegans, single replicate): 6.941% and 0.000% and 2.528% and 3.137% | remaining activity at 37.5 µM ([1]; dose 37.5 µM, wild-type C. elegans, mean of replicates, read-out: in vitro complex I activity relative to solvent control, Mean): 1.66% | in vitro complex I activity relative to solvent control, individual replicate ([1]; dose 37.5 µM, wild-type C. elegans, single replicate): 3.595% and 0.000% and 3.039% | remaining activity at 75 µM ([1]; dose 75 µM, wild-type C. elegans, mean of replicates, read-out: in vitro complex I activity relative to solvent control, Mean): 1.29% | in vitro complex I activity relative to solvent control, individual replicate ([1]; dose 75 µM, wild-type C. elegans, single replicate): 0.000% and 3.223% and 1.928% | IC50 ([1]; in vitro complex I dose response on C. elegans mitochondria, average of at least two biological replicates, fit in R (DRC), read-out: IC50 C. elegans complex I): 110 nM | Log IC50 C. elegans complex I ([1]; log10 of IC50 in µM, C. elegans mitochondria): -0.96 µM | IC50 ([1]; wild-type (N2) mitochondria, read-out: C. elegans Complex I IC50): 110 nM | IC50 ([1]; wild-type (N2) mitochondria, read-out: C. elegans complex I IC50): 112 nM | IC50 ([1]; wild-type C. elegans mitochondria, estimated from fitted dose-response curves, read-out: C. elegans Complex I IC50): 110 nM | Complex I IC50 ~Fold Change ([2]; B. taurus complex I IC50 relative to C. elegans complex I IC50): 2.72 | IC50 ([2]; B. taurus heart mitochondria, estimated from fitted dose-response curves, read-out: B. taurus Complex I IC50): 300 nM | B. taurus: C. elegans IC50 Fold Change (Complex I IC50 ~Fold Change) ([2]; complex I IC50 ratio bovine heart / C. elegans): 2.72 | IC50 Fold change ([2]; fold-change in IC50 between B. taurus and C. elegans complex I): 2.72 | Log IC50 B. taurus complex I ([2]; log10 of IC50 in µM, B. taurus mitochondria): -0.52 µM

Source: PMC11079024, “Identification of a family of species-selective complex I inhibitors as potential anthelmintics” (Nature Communications, 2024)
